Assay: xn = mol fraction of the nth substance listed
Settings: 100 kPa, Liquid; for viscosity: Falling or rolling sphere viscometry; for mass density: Vibrating tube method

CC[N+]1(C)CCOCC1.O=C([O-])CO [N-ethyl-N-methylmorpholinium glycolate] + O
Settings | mass density [kg/m3] | viscosity [mPa·s]
298.15 K, x1 = 0.0933 | 1128.6 | –
298.15 K, x1 = 0.1688 | 1170.3 | 21.4
298.15 K, x1 = 0.2209 | 1186.5 | 43.1
298.15 K, x1 = 0.288 | 1199.7 | 95.3
298.15 K, x1 = 0.3907 | 1211.3 | 359
298.15 K, x1 = 0.4809 | 1217.5 | 842
298.15 K, x1 = 0.5793 | 1221.9 | 1779
298.15 K, x1 = 0.6669 | 1224.6 | –
298.15 K, x1 = 0.7573 | 1226.9 | –
298.15 K, x1 = 0.8256 | 1228 | –
303.15 K, x1 = 0.0933 | 1125.6 | –
303.15 K, x1 = 0.1688 | 1167 | 17
303.15 K, x1 = 0.2209 | 1183.1 | 32.9
303.15 K, x1 = 0.288 | 1196.3 | 69.7
303.15 K, x1 = 0.3907 | 1207.9 | 224
303.15 K, x1 = 0.4809 | 1214.1 | 494
303.15 K, x1 = 0.5793 | 1218.5 | 1005
303.15 K, x1 = 0.6669 | 1221.2 | 1723
303.15 K, x1 = 0.7573 | 1223.6 | –
303.15 K, x1 = 0.8256 | 1224.8 | –
308.15 K, x1 = 0.0933 | 1122.6 | –
308.15 K, x1 = 0.1688 | 1163.7 | 13.9
308.15 K, x1 = 0.2209 | 1179.6 | 25.8
308.15 K, x1 = 0.288 | 1192.8 | 52.3
308.15 K, x1 = 0.3907 | 1204.5 | 158
308.15 K, x1 = 0.4809 | 1210.7 | 339
308.15 K, x1 = 0.5793 | 1215.1 | 678
308.15 K, x1 = 0.6669 | 1217.9 | 1151
308.15 K, x1 = 0.7573 | 1220.2 | 1866
308.15 K, x1 = 0.8256 | 1221.5 | –
313.15 K, x1 = 0.0933 | 1119.5 | –
313.15 K, x1 = 0.1688 | 1160.4 | 11.3
313.15 K, x1 = 0.2209 | 1176.2 | 20.1
313.15 K, x1 = 0.288 | 1189.4 | 40.5
313.15 K, x1 = 0.3907 | 1201.1 | 118
313.15 K, x1 = 0.4809 | 1207.3 | 250
313.15 K, x1 = 0.5793 | 1211.8 | 496
313.15 K, x1 = 0.6669 | 1214.6 | 838
313.15 K, x1 = 0.7573 | 1216.9 | 1354
313.15 K, x1 = 0.8256 | 1218.2 | 1882
318.15 K, x1 = 0.0933 | 1116.4 | –
318.15 K, x1 = 0.1688 | 1157 | 9.61
318.15 K, x1 = 0.2209 | 1172.8 | 16.8
318.15 K, x1 = 0.288 | 1186 | 32
318.15 K, x1 = 0.3907 | 1197.7 | 85.6
318.15 K, x1 = 0.4809 | 1204 | 174
318.15 K, x1 = 0.5793 | 1208.5 | 334
318.15 K, x1 = 0.6669 | 1211.2 | 555
318.15 K, x1 = 0.7573 | 1213.7 | 884
318.15 K, x1 = 0.8256 | 1214.9 | 1219
323.15 K, x1 = 0.0933 | 1113.2 | –
323.15 K, x1 = 0.1688 | 1153.6 | 8.15
323.15 K, x1 = 0.2209 | 1169.4 | 13.9
323.15 K, x1 = 0.288 | 1182.6 | 25.5
323.15 K, x1 = 0.3907 | 1194.3 | 65.4
323.15 K, x1 = 0.4809 | 1200.6 | 130
323.15 K, x1 = 0.5793 | 1205.2 | 246
323.15 K, x1 = 0.6669 | 1207.9 | 405
323.15 K, x1 = 0.7573 | 1210.3 | 642
323.15 K, x1 = 0.8256 | 1211.7 | 882
328.15 K, x1 = 0.0933 | 1110 | –
328.15 K, x1 = 0.1688 | 1150.2 | 6.97
328.15 K, x1 = 0.2209 | 1166 | 11.7
328.15 K, x1 = 0.288 | 1179.2 | 20.8
328.15 K, x1 = 0.3907 | 1191 | 54
328.15 K, x1 = 0.4809 | 1197.3 | 98.6
328.15 K, x1 = 0.5793 | 1201.9 | 179
328.15 K, x1 = 0.6669 | 1204.7 | 283
328.15 K, x1 = 0.7573 | 1207 | 435
328.15 K, x1 = 0.8256 | 1208.5 | 587
333.15 K, x1 = 0.0933 | 1106.8 | –
333.15 K, x1 = 0.1688 | 1146.8 | 6
333.15 K, x1 = 0.2209 | 1162.6 | 9.79
333.15 K, x1 = 0.288 | 1175.8 | 17.3
333.15 K, x1 = 0.3907 | 1187.6 | 43.4
333.15 K, x1 = 0.4809 | 1194 | 77.6
333.15 K, x1 = 0.5793 | 1198.6 | 138
333.15 K, x1 = 0.6669 | 1201.5 | 217
333.15 K, x1 = 0.7573 | 1203.8 | 329
333.15 K, x1 = 0.8256 | 1205.2 | 441
338.15 K, x1 = 0.0933 | 1103.5 | –
338.15 K, x1 = 0.1688 | 1143.4 | 5.2
338.15 K, x1 = 0.2209 | 1159.2 | 8.55
338.15 K, x1 = 0.288 | 1172.4 | 14.6
338.15 K, x1 = 0.3907 | 1184.3 | 32.4
338.15 K, x1 = 0.4809 | 1190.7 | 59
338.15 K, x1 = 0.5793 | 1195.4 | 105
338.15 K, x1 = 0.6669 | 1198.3 | 165
338.15 K, x1 = 0.7573 | 1200.8 | 253
338.15 K, x1 = 0.8256 | 1202.1 | 340
343.15 K, x1 = 0.0933 | 1100.2 | –
343.15 K, x1 = 0.1688 | 1140 | 4.55
343.15 K, x1 = 0.2209 | 1155.8 | 7.41
343.15 K, x1 = 0.288 | 1169 | 12.4
343.15 K, x1 = 0.3907 | 1181 | 28.9
343.15 K, x1 = 0.4809 | 1187.5 | 49.6
343.15 K, x1 = 0.5793 | 1192.2 | 85.3
343.15 K, x1 = 0.6669 | 1195.1 | 131
343.15 K, x1 = 0.7573 | 1197.6 | 195
343.15 K, x1 = 0.8256 | 1199 | 258
348.15 K, x1 = 0.0933 | 1096.8 | –
348.15 K, x1 = 0.1688 | 1136.6 | 4.01
348.15 K, x1 = 0.2209 | 1152.4 | 6.46
348.15 K, x1 = 0.288 | 1165.7 | 10.7
348.15 K, x1 = 0.3907 | 1177.7 | 24.2
348.15 K, x1 = 0.4809 | 1184.2 | 40.4
348.15 K, x1 = 0.5793 | 1189 | 67.9
348.15 K, x1 = 0.6669 | 1192 | 102
348.15 K, x1 = 0.7573 | 1194.5 | 150
348.15 K, x1 = 0.8256 | 1195.9 | 196

From the NIST ThermoML archive (doi:10.1016/j.jct.2016.10.034)
